What was measured:
[1] = biological target: T1, cynomolgus monkey B2 receptor (Macaca fascicularis, UniProt A0A7N9CWN6); assay: cell-based
T1 sequence (A0A7N9CWN6 1-391): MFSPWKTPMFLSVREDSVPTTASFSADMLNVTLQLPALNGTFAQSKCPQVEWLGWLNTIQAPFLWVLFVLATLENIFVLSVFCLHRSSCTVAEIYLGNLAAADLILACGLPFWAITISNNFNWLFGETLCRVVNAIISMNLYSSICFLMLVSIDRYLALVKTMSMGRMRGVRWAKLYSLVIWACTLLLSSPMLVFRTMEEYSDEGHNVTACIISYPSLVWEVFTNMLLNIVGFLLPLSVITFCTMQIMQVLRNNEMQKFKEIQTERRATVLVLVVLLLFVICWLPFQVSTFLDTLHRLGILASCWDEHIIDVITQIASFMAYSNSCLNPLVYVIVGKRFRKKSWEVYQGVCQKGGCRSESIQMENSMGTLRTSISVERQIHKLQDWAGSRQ

[2] = biological target: T2, Serotonin 5-HT3 (Homo sapiens, UniProt P46098); assay: radioligand binding (Table S2); conditions: [3H] BRL 43694, Human recombinant CHO cells
T2 construct: host or cells: CHO cells

[3] = biological target: T3, Vasopressin V1a (Homo sapiens, UniProt P37288); assay: functional assay, intracellular [Ca2+], CHO cells (Table S2); format: cell-based; conditions: AVP (10 nM)
T3 construct: host or cells: CHO cells
T3 sequence (P37288 whole entry): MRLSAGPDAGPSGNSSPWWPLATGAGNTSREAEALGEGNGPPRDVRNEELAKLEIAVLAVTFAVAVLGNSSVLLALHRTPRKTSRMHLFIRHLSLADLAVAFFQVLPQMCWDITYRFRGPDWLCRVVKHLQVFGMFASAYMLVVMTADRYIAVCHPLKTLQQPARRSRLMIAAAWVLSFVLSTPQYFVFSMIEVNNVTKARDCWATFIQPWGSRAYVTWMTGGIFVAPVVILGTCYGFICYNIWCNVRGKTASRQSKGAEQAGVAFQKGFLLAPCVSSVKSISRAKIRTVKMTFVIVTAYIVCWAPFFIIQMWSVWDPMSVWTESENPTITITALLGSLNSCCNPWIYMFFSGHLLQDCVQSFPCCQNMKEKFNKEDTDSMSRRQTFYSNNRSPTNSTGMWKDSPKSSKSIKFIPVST

[4] = biological target: Cholecystokinin CCK2 (CCKB) (Homo sapiens, UniProt P32239); assay: radioligand binding (Table S2); conditions: [125I] CCK-8, Human recombinant Chem-1 cells
Chain of Cholecystokinin CCK2 (CCKB) (P32239 whole entry): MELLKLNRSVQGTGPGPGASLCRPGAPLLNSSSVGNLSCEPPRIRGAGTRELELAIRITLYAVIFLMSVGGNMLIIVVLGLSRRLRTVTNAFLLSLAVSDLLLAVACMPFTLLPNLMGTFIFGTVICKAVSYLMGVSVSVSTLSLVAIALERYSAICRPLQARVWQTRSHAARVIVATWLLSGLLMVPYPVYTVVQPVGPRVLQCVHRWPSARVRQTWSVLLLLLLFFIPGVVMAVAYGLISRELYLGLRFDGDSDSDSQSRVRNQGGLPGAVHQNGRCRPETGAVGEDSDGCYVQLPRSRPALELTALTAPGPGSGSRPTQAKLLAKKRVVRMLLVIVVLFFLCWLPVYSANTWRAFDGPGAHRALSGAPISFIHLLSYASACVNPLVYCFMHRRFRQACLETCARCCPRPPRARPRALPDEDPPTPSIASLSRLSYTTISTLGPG

[5] = biological target: T4, Melanocortin MC5 (Homo sapiens, UniProt P33032); assay: radioligand binding (Table S2); conditions: [125I] NDP-α-MSH, Human recombinant CHO cells
T4 construct: host or cells: CHO cells

[6] = tested on: Caco-2 cell monolayer; conditions: human, Caco-2, 60 min, 10 µM
[7] = biological target: Adrenergic β2 (Homo sapiens, UniProt P07550); assay: radioligand binding (Table S2); conditions: read-out: % Inhibition @ 10 µM
Chain of Adrenergic β2 (P07550 whole entry): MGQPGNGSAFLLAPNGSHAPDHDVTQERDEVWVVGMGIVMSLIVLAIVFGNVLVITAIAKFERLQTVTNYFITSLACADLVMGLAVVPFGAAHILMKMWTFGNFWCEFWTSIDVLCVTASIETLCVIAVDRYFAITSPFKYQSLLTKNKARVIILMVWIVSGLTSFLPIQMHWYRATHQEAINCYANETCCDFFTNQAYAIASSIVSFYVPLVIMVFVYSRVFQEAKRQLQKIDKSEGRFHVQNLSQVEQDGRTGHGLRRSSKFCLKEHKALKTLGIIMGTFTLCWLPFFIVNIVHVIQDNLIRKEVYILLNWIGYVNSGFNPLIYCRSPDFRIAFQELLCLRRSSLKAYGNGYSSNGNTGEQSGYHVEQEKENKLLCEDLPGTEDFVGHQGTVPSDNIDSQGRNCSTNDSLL

[8] = tested on: Glutamate ionotropic, AMPA; assay: radioligand binding (Table S2); conditions: [3H] AMPA, Rat cerebral cortex
[9] = biological target: Adenosine A1 (Homo sapiens, UniProt P30542); assay: functional assay, impedance, CHO cells (Table S2); format: cell-based; conditions: read-out: % inhibition of reference agonist response @ 10 µM (antagonist effect), CPA (1 nM)
Chain of Adenosine A1 (P30542 whole entry): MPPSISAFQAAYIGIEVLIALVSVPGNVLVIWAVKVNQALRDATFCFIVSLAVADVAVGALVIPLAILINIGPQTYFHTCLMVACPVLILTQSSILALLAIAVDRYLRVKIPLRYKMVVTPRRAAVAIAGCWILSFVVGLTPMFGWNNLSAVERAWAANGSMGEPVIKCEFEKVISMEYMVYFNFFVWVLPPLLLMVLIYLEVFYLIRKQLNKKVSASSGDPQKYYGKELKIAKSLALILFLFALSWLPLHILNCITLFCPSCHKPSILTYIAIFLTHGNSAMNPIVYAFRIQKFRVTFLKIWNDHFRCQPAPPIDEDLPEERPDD

[10] = biological target: Gamma-aminobutyric acid GABAB1A (Homo sapiens, UniProt Q9UBS5); assay: radioligand binding (Table S2); conditions: read-out: % Inhibition @ 10 µM
Chain of Gamma-aminobutyric acid GABAB1A (Q9UBS5 15-961 limits assumed): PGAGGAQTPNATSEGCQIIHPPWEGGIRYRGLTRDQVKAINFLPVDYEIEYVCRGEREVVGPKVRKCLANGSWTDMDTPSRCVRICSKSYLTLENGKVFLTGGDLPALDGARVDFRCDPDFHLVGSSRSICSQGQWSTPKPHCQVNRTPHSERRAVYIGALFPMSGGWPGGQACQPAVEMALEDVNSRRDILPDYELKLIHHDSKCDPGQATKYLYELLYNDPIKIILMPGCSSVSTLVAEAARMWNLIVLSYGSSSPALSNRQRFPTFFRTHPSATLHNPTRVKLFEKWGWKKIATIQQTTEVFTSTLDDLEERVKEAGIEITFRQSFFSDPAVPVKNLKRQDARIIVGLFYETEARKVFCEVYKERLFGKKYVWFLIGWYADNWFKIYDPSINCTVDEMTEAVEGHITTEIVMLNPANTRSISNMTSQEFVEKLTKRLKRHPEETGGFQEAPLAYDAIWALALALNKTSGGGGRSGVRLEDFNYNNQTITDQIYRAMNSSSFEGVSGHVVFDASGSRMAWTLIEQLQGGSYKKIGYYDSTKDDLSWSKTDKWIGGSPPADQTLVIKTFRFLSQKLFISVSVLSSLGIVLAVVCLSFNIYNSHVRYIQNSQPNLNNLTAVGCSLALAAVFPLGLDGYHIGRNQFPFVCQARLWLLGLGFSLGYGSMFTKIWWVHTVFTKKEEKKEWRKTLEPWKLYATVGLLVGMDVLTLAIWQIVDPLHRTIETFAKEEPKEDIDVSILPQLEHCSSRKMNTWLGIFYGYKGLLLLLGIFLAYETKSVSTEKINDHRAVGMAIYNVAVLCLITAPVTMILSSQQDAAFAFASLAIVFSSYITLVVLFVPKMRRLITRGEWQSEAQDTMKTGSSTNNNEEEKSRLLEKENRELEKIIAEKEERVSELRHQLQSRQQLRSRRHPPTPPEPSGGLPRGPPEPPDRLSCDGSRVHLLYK

[11] = biological target: T5, Prostanoid FP (Homo sapiens, UniProt P43088); assay: radioligand binding (Table S2); conditions: [3H] Prostaglandin F2α, Human recombinant HEK-293 cells
T5 construct: host or cells: HEK-293 cells
T5 sequence (P43088 whole entry): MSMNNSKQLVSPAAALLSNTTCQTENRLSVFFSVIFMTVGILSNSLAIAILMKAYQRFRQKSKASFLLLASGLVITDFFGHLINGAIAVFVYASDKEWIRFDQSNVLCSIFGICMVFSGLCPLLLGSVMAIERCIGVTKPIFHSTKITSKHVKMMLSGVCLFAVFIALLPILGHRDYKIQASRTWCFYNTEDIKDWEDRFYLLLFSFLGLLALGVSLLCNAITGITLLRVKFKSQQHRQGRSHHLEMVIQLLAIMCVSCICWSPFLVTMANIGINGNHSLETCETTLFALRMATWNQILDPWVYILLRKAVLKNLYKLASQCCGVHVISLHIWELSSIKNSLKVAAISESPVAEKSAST

[12] = biological target: T6, Prostanoid EP4 (Homo sapiens, UniProt P35408); assay: radioligand binding (Table S2); conditions: [3H] Prostaglandin E2, Human recombinant Chem-1 cells
T6 construct: host or cells: Chem-1 cells
T6 sequence (P35408 whole entry): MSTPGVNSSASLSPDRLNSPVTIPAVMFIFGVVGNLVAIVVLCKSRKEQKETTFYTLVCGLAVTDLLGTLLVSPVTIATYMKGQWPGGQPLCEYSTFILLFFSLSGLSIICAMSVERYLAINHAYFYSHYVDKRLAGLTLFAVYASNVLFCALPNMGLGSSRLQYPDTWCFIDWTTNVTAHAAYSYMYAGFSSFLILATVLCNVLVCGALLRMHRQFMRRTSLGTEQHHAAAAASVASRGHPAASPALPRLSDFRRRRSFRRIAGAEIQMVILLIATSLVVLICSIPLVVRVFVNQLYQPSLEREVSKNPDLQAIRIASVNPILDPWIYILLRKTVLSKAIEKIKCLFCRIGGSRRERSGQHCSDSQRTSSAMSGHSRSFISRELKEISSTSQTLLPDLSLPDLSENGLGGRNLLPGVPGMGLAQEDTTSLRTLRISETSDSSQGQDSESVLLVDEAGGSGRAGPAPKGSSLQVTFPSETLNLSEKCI

[13] = biological target: T7, PDGFRβ kinase (Homo sapiens, UniProt P09619); assay: enzyme assay (Table S2); format: biochemical; conditions: ATP + Ulight-PolyGAT (25 nM), LANCE
T7 construct: host or cells: insect cells

[14] = biological target: T8, Melanocortin MC3 (Homo sapiens, UniProt P41968); assay: radioligand binding (Table S2); conditions: [125I] NDP-α-MSH, Human recombinant CHO cells
T8 construct: host or cells: CHO cells

[15] = biological target: T9, Bombesin BB2 (Homo sapiens, UniProt P30550); assay: radioligand binding (Table S2); conditions: [125I] [Tyr4]-bombesin, Human recombinant HEK-293 cells
T9 construct: host or cells: HEK-293 cells

[16] = biological target: Adrenergic α2A (Homo sapiens, UniProt P08913); assay: radioligand binding (Table S2); conditions: read-out: % Inhibition @ 10 µM
[17] = biological target: Angiotensine AT2 (Homo sapiens, UniProt P50052); assay: radioligand binding (Table S2); conditions: read-out: % Inhibition @ 10 µM
Chain of Angiotensine AT2 (P50052 whole entry): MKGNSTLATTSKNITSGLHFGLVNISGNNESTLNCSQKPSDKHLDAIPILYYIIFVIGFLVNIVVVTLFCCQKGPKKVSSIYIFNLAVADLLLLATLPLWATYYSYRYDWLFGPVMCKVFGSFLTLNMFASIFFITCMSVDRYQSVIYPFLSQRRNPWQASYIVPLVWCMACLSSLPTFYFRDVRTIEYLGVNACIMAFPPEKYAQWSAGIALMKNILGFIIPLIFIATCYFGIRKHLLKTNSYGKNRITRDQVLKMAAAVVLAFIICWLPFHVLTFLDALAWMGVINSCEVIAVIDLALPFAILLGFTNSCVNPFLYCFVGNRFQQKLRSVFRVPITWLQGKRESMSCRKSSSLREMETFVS

[18] = biological target: T10, Cysteinyl leukotriene receptor CysLT2 (Homo sapiens, UniProt Q9NS75); assay: radioligand binding (Table S2); conditions: [3H] LTD4, Human recombinant HEK-293 cells
T10 construct: host or cells: HEK-293 cells
T10 sequence (Q9NS75 whole entry): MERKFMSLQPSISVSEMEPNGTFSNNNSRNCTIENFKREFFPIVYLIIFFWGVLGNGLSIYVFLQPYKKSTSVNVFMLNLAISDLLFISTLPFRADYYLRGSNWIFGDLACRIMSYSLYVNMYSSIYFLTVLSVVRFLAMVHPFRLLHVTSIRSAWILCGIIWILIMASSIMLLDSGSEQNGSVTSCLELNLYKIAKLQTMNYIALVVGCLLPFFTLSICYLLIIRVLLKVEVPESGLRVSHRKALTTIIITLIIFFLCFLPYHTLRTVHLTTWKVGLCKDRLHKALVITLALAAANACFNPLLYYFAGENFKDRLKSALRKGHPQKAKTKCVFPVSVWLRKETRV

[19] = biological target: T11, 5-HT2A receptor (Homo sapiens, UniProt P28223); assay: umbilical vein, serotonin-induced contraction; conditions: Compound 2 10 μM; Compound 3 1 μM
T11 construct: other endogenously expressed receptors in the human umbilical vein; from tissue; host or cells: human umbilical vein rings
T11 sequence (P28223 whole entry): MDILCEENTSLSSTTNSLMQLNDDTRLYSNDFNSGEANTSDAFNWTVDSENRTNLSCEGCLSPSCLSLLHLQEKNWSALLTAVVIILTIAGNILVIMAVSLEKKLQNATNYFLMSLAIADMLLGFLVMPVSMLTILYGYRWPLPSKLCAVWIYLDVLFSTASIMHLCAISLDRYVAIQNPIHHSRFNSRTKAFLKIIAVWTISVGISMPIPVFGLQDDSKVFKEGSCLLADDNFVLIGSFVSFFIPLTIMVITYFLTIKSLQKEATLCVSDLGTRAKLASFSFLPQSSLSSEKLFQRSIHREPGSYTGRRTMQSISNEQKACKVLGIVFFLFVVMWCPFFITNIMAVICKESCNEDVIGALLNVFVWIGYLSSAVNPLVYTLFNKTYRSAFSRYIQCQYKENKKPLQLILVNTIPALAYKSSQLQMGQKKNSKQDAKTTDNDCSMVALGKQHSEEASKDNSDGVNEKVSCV
Text: The local ethics committee (CHU de Québec-Université Laval) had approved the project (File no. 2017-3720). Umbilical cords were obtained following elective caesarean sections; all problematic deliveries are excluded. Informed consent was obtained from the mothers. The cords were transported from the maternity ward to the laboratory in sterile Hank's balanced salt solution containing penicillin and streptomycin. Segments of umbilical veins were dissected carefully from the cords and a metal rod was inserted in the lumen. Excess connective tissue was excised and rings (2–3 mm wide) were cut. Rings of umbilical veins were suspended in 5-mL organ chambers containing oxygenated (95% O2, 5% CO2) and warmed (37°C) Krebs' solution between a metal hook and a thread loop. This solution had the following composition: NaCl 117.5 mM, KCl 4.7 mM, KH2PO4 1.2 mM, MgSO4 1.18 mM, CaCI2 2.5 mM, NaHCO3 25.0 mM, and D-glucose 5.5 mM. A baseline of one gram-weight was applied to these preparations. Changes of tension were recorded by using isometric transducers (model 52-9545, Harvard Bioscience, South Natick MA). Eight tissue baths are operated in parallel.
For this purpose, contractile responses to serotonin, acting on the 5-HT2A receptor, and U-46619, acting at the prostanoid TP receptor, were measured ([Rogines-Velo et al., 2002]; [Daray et al., 2003]).

[20] = biological target: T12, Gonadotropin-releasing hormone (Homo sapiens, UniProt P30968); assay: radioligand binding (Table S2); conditions: [125I] [D-Trp6]-LH-RH, Human recombinant Chem-1 cells
T12 construct: host or cells: Chem-1 cells

[21] = biological target: T13, Histamine H2 (Homo sapiens, UniProt P25021); assay: radioligand binding (Table S2); conditions: [125I] APT, Human recombinant CHO cells
T13 construct: host or cells: CHO cells
T13 sequence (P25021 whole entry): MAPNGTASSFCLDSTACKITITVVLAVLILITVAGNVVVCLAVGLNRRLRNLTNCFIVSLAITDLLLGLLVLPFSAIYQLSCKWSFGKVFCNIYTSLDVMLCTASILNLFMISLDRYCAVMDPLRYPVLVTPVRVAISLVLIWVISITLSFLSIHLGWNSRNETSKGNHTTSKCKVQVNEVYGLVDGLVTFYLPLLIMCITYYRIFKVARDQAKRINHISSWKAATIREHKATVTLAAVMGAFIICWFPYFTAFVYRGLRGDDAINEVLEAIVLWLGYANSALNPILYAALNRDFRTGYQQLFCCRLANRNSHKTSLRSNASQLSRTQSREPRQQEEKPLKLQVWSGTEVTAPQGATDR

[22] = biological target: Muscarinic M3 (Homo sapiens, UniProt P20309); assay: radioligand binding (Table S2); conditions: read-out: % Inhibition @ 10 µM

`Cc1cc(-c2ncnn2C)c2cccc(OCc3c(Cl)cc(F)cc3[C@H](C)NC(=O)COC(F)F)c2n1` [Compound 3, (S)-N-(1-(3-chloro-5-fluoro-2-((2-methyl-4-(1-methyl-1H-1,2,4-triazol-5-yl)quinolin-8-yloxy)methyl)phenyl)ethyl)-2-(difluoromethoxy)acetamide] was tested, and the IC50 [1] was 6.25 nM, the Kb [1] was 1.36 nM and the inhibition at 10 µM [2] was 2.1%. The IC50 ([3]; read-out: IC50 (µM), functional antagonism) was 9.1 µM, the Kb ([3]; read-out: Kb (µM), functional antagonism) was 0.31 µM and the inhibition at 10 µM ([3]; CHO, read-out: % inhibition of reference agonist response @ 10 µM (antagonist effect), 10 µM) was 51.9%. For the same compound, the inhibition at 10 µM [4] was 1%, the inhibition at 10 µM [5] was -9.6% and the “Caco-2 AB, apparent permeation rate apical to basolateral direction” value [6] was > 10^-5 cm/s. The inhibition at 10 µM [7] was 3%, the “% Inhibition @ 10 µM” value [8] was 3.0% and the inhibition at 10 µM [9] was -2.3%. It also gave an inhibition at 10 µM [10] of 8%, an inhibition at 10 µM [11] of 19% and an inhibition at 10 µM [12] of 3%. It also gave an inhibition at 10 µM [13] of -1%, an inhibition at 10 µM [14] of -8.2% and an inhibition at 10 µM [15] of -1.4%. It also gave an inhibition at 10 µM [16] of -1.7%, an inhibition at 10 µM [17] of 3.5% and an inhibition at 10 µM [18] of -6%. For the same compound, the “effect on serotonin-induced contraction” value [19] was “Lack of antagonist effect”, the inhibition at 10 µM [20] was 5% and the inhibition at 10 µM [21] was -26.5%. The inhibition at 10 µM [22] was 4.2%.
